Results published in patent US20100267561A1, “HERBICIDAL PYRIDAZINONE DERIVATIVES” (priority 2007, published 2010).

Key:
Experiment in all cases: Test B pre-/postemergence plant response
Format in all cases: in vivo
[1] = tested on: woolly cupgrass (Eriochloa villosa)
Procedure, shortened: (§1)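 Visual scoring from 0 (no effect) to 100 (complete control) against untreated controls was done 13 to 15 days after greenhouse treatment. Chemicals were formulated in a surfactant-containing non-phytotoxic solvent and applied to soil preemergence or to 1- to 4-leaf (2-18 cm) plants postemergence.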

[2] = tested on: surinam grass (Brachiaria decumbens)
Procedure, shortened: as §1

[3] = tested on: green foxtail (Setaria viridis)
Procedure, shortened: as §1

[4] = tested on: downy bromegrass (Bromus tectorum)
Procedure, shortened: as §1

[5] = tested on: wild oat (Avena fatua)
Procedure, shortened: as §1

[6] = tested on: goosegrass (Eleusine indica)
Procedure, shortened: as §1

[7] = tested on: corn (Zea mays)
Procedure, shortened: as §1

[8] = tested on: lambsquarters (Chenopodium album)
Procedure, shortened: as §1

[9] = tested on: catchweed bedstraw (Galium aparine); conditions: Preemergence, scale 0 to 100
Procedure, shortened: as §1

[10] = tested on: common ragweed (Ambrosia elation)
Procedure, shortened: as §1

[11] = tested on: pigweed (Amaranthus retroflexus)
Procedure, shortened: as §1

[12] = tested on: giant foxtail (Setaria faberii)
Procedure, shortened: as §1

[13] = tested on: blackgrass (Alopecurus myosuroides)
Procedure, shortened: as §1

[14] = tested on: morningglory (Ipomoea coccinea)
Procedure, shortened: as §1

[15] = Postemergence, 31 g ai/ha, scale 0 to 100, 0 no effect, 100 complete control
[16] = Postemergence, 62 g ai/ha, scale 0 to 100
[17] = Postemergence, 125 g ai/ha, scale 0 to 100
[18] = Postemergence, 250 g ai/ha, scale 0 to 100
[19] = Preemergence, 31 g ai/ha, 0 to 100 scale, 0 no effect, 100 complete control
[20] = Preemergence, 62 g ai/ha, scale 0 to 100
[21] = Preemergence, 125 g ai/ha, scale 0 to 100
[22] = Preemergence, 250 g ai/ha, scale 0 to 100

“5-[3-(4-chlorophenyl)-5-methyl-1H-pyrazol-1-yl]-1,6-dihydro-1-methyl-6-oxo-4-pyridazinyl-1-methylethyl carbonate [Compound 7]” was tested, and the “Plant response rating, Cupgrass, Woolly” value [1, 15] was 100, the “Plant response rating, Cupgrass, Woolly” value [1, 16] was 100 and the “Plant response rating, Cupgrass, Woolly” value [1, 17] was 100. The “Plant response rating, Cupgrass, Woolly” value [1, 18] was 100, the “Plant response rating, Cupgrass, Woolly” value [1, 19] was 70 and the “Plant response rating, Cupgrass, Woolly” value [1, 20] was 70. The “Plant response rating, Cupgrass, Woolly” value [1, 21] was 85, the “Plant response rating, Cupgrass, Woolly” value [1, 22] was 100 and the “Plant response rating, Surinam Grass” value [2, 15] was 100. The “Plant response rating, Surinam Grass” value [2, 16] was 100, the “Plant response rating, Surinam Grass” value [2, 17] was 100 and the “Plant response rating, Surinam Grass” value [2, 18] was 100. For the same substance, the “Plant response rating, Surinam Grass” value [2, 19] was 98, the “Plant response rating, Surinam Grass” value [2, 20] was 100 and the “Plant response rating, Surinam Grass” value [2, 21] was 100. For the same substance, the “Plant response rating, Surinam Grass” value [2, 22] was 100, the “Plant response rating, Foxtail, Green” value [3, 15] was 75 and the “Plant response rating, Foxtail, Green” value [3, 16] was 100. The “Plant response rating, Foxtail, Green” value [3, 17] was 100, the “Plant response rating, Foxtail, Green” value [3, 18] was 100 and the “Plant response rating, Foxtail, Green” value [3, 19] was 100. For the same substance, the “Plant response rating, Foxtail, Green” value [3, 20] was 100, the “Plant response rating, Foxtail, Green” value [3, 21] was 100 and the “Plant response rating, Foxtail, Green” value [3, 22] was 100. The “Plant response rating, Bromegrass, Downy” value [4, 15] was 0, the “Plant response rating, Bromegrass, Downy” value [4, 16] was 0 and the “Plant response rating, Bromegrass, Downy” value [4, 17] was 0. For the same substance, the “Plant response rating, Bromegrass, Downy” value [4, 18] was 0, the “Plant response rating, Bromegrass, Downy” value [4, 19] was 35 and the “Plant response rating, Bromegrass, Downy” value [4, 20] was 35. For the same substance, the “Plant response rating, Bromegrass, Downy” value [4, 21] was 60, the “Plant response rating, Bromegrass, Downy” value ([4]; Preemergence, 250 g ai/ha, scale 0 to 100 (0 no effect, 100 complete control)) was 60 and the “Plant response rating, Oat, Wild” value [5, 15] was 95. The “Plant response rating, Oat, Wild” value [5, 16] was 95, the “Plant response rating, Oat, Wild” value [5, 17] was 95 and the “Plant response rating, Oat, Wild” value [5, 18] was 95. The “Plant response rating, Oat, Wild” value [5, 19] was 0, the “Plant response rating, Oat, Wild” value [5, 20] was 70 and the “Plant response rating, Oat, Wild” value [5, 21] was 80. The “Plant response rating, Oat, Wild” value [5, 22] was 85, the “Plant response rating, Goosegrass” value [6, 15] was 95 and the “Plant response rating, Goosegrass” value [6, 16] was 100. The “Plant response rating, Goosegrass” value [6, 17] was 100, the “Plant response rating, Goosegrass” value [6, 18] was 100 and the “Plant response rating, Goosegrass” value [6, 19] was 85. The “Plant response rating, Goosegrass” value [6, 20] was 90, the “Plant response rating, Goosegrass” value [6, 21] was 100 and the “Plant response rating, Goosegrass” value [6, 22] was 100. The “Plant response rating, Corn” value [7, 15] was 90, the “Plant response rating, Corn” value [7, 16] was 90 and the “Plant response rating, Corn” value [7, 17] was 90. The “Plant response rating, Corn” value [7, 18] was 90, the “Plant response rating, Corn” value [7, 19] was 90 and the “Plant response rating, Corn” value [7, 20] was 95. The “Plant response rating, Corn” value [7, 21] was 98, the “Plant response rating, Corn” value [7, 22] was 100 and the “Plant response rating, Lambsquarters” value [8, 15] was 0. For the same substance, the “Plant response rating, Lambsquarters” value [8, 16] was 0, the “Plant response rating, Lambsquarters” value [8, 17] was 0 and the “Plant response rating, Lambsquarters” value [8, 18] was 10. The “Plant response rating, Lambsquarters” value [8, 19] was 30, the “Plant response rating, Lambsquarters” value [8, 20] was 30 and the “Plant response rating, Lambsquarters” value [8, 21] was 90. The “Plant response rating, Lambsquarters” value [8, 22] was 100, the “Plant response rating, Galium” value ([9]; 62 g ai/ha) was 0 and the “Plant response rating, Galium” value ([9]; 125 g ai/ha) was 80. The “Plant response rating, Galium” value ([9]; 250 g ai/ha) was 80, the “Plant response rating, Ragweed” value [10, 15] was 0 and the “Plant response rating, Ragweed” value [10, 16] was 0. The “Plant response rating, Ragweed” value [10, 17] was 0, the “Plant response rating, Ragweed” value [10, 18] was 0 and the “Plant response rating, Ragweed” value [10, 19] was 0. The “Plant response rating, Ragweed” value [10, 20] was 0, the “Plant response rating, Ragweed” value [10, 21] was 0 and the “Plant response rating, Ragweed” value [10, 22] was 20. For the same substance, the “Plant response rating, Pigweed” value [11, 15] was 0, the “Plant response rating, Pigweed” value [11, 16] was 0 and the “Plant response rating, Pigweed” value [11, 17] was 0. For the same substance, the “Plant response rating, Pigweed” value [11, 18] was 20, the “Plant response rating, Pigweed” value [11, 19] was 85 and the “Plant response rating, Pigweed” value [11, 20] was 100. For the same substance, the “Plant response rating, Pigweed” value [11, 21] was 100, the “Plant response rating, Foxtail, Giant” value [12, 15] was 98 and the “Plant response rating, Foxtail, Giant” value [12, 16] was 100. For the same substance, the “Plant response rating, Foxtail, Giant” value [12, 17] was 100, the “Plant response rating, Foxtail, Giant” value [12, 18] was 100 and the “Plant response rating, Foxtail, Giant” value [12, 19] was 100. The “Plant response rating, Foxtail, Giant” value [12, 20] was 100, the “Plant response rating, Foxtail, Giant” value [12, 21] was 100 and the “Plant response rating, Foxtail, Giant” value [12, 22] was 100. For the same substance, the “Blackgrass plant response rating” value ([13]; 250 g ai/ha, preemergence, 0-100 scale) was 100, the “Plant response rating, Blackgrass” value [13, 15] was 85 and the “Plant response rating, Blackgrass” value [13, 16] was 90. The “Plant response rating, Blackgrass” value [13, 17] was 100, the “Plant response rating, Blackgrass” value [13, 18] was 100 and the “Plant response rating, Blackgrass” value [13, 19] was 70. For the same substance, the “Plant response rating, Blackgrass” value [13, 20] was 85, the “Plant response rating, Blackgrass” value [13, 21] was 100 and the “Plant response rating, Morningglory” value [14, 15] was 0. The “Plant response rating, Morningglory” value [14, 16] was 0, the “Plant response rating, Morningglory” value [14, 17] was 0 and the “Plant response rating, Morningglory” value [14, 18] was 0. For the same substance, the “Plant response rating, Morningglory” value [14, 19] was 0, the “Plant response rating, Morningglory” value [14, 20] was 0 and the “Plant response rating, Morningglory” value [14, 21] was 0. The “Plant response rating, Morningglory” value [14, 22] was 0.
